Reference: patent publication US20040167131A1, “Inhibitors of factor Xa and other serine proteases involved in the coagulation cascade” (Pfizer Inc., priority 2002, published 2004)

Experiments:
[1] = molecular target: T1, human factor Xa (Homo sapiens, UniProt P00742); assay: Determination of Factor Xa IC50 (cleavage of fluorogenic substrate F-S2765); assay type: biochemical; settings: 3 pM human factor Xa; read-out: FXa 3 pM IC50
T1 construct: purchased Enzyme Research Laboratories
Experimental: The ability of compounds to act as inhibitors of human factor Xa catalytic activity was assessed by determination of that concentration of test substance that inhibited by 50% (IC50) the ability of human factor Xa to cleave the fluorogenic substrate F-S2765 (N-α-Z-D-Arg-Gly-Arg-pNA HCl, California Peptide Research). […] The IC50 was determined at 3 pM and/or 30 pM concentrations of human factor Xa (Enzyme Research Laboratories). These concentrations were achieved by diluting a stock solution of human factor Xa in the appropriate amount of buffer containing 10 mM HEPES, 150 mM NaCl, and 0.1% BSA at pH 7.4 (HBSA buffer). Accordingly, 73 μL of the factor Xa/buffer solution was added to 2.5 μL of DMSO-reconstituted compound and incubated for 55 minutes at room temperature. After warming to 37° C. for am additional 5 minutes, 50 μL of rewarmed substrate was added and the IC50 determined by monitoring the increase in absorbance at 390 nm excitation/460 nm emission (455 nm cutoff) in a fluorometric plate reader or 30 minutes.

[2] = tested on: human plasma; assay: Determination of Prothrombin Time (PT); assay type: biochemical; settings: concentration required to increase the clotting time by 2-fold, human tissue thromboplastin
Experimental: The prothrombin time (PT) is a measure of extrinsic and common pathway factors. In this assays, human tissue thromboplastin is added to human plasma which activates pathway factors, including factor X activation to factor Xa, leading to clot formation. Significant inhibition of factor Xa, by a small molecule inhibitor, will reduce the conversion of prothrombin to thrombin and thereby increase the time to clot formation in this assay. The value 2 X PT is the concentration of the inhibitor required to increase the clotting time by 2-fold.

[3] = tested on: rat; settings: arteriovenous shunt and venous stasis models; cited from earlier work
[4] = tested on: dog; settings: adjunct to recombinant tissue plasminogen activator; cited from earlier work
[5] = tested on: canine coronary artery; settings: canine coronary artery electrolytic lesion model; cited from earlier work
[6] = tested on: rabbit; settings: rabbit model of venous thrombosis; cited from earlier work

T1 sequence (P00742 235-488 limits assumed): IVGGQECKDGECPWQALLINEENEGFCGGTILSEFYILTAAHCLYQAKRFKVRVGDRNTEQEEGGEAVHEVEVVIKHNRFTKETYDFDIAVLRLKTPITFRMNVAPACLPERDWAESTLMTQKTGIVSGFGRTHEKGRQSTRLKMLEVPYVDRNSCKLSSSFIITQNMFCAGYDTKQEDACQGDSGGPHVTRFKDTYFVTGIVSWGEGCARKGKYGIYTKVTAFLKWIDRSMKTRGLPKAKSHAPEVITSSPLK
T1 sequence (P00742 41-179 partner limits assumed): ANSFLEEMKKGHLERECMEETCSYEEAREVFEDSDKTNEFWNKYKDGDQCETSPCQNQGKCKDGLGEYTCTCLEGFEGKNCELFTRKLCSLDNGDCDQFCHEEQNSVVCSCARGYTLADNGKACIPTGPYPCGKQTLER

## CS(=O)(=O)c1ccccc1-c1ccc(NC(=O)C2(NC(=O)Nc3ccc(Cl)cc3)CCCC2)cc1 [Example 1, 1-[3-(4-Chloro-phenyl)-ureido]-cyclopentanecarboxylic acid (2′-methanesulfonyl-biphenyl-4-yl)-amide]
[1]
  IC50: 38 nM
[2]
  PT Conc. 2X Prolong.: 13.45 µM

## CC(=N)N1CC[C@H](Oc2ccc([C@H](Cc3ccc4ccc(C(=N)N)cc4c3)C(=O)O)cc2)C1 [DX9065a]
[3]
  inhibition of thrombus formation: inhibition of thrombus formation was achieved at doses that had little effect on APTT

## rTAP: recombinant tick anticoagulant peptide, a protein or polypeptide factor Xa inhibitor (YNRLCIKPRDWIDECDSNEGGERAYFRNGKGGCDSFWICPEDHTGADYYSSYRDCFNACI; UniProt P17726 1-60, looked up)
[4]
  clot lysis and reocclusion: accelerate the recombinant tissue plasminogen activator mediated clot lysis and prevent acute reocclusion
[5]
  thrombus mass and time to occlusion: reduce thrombus mass and time to occlusion
[6]
  fibrin deposition: reduce fibrin deposition
